# Measurements published in patent publication US20180353460A1, “METHODS OF TREATING UROLOGICAL DISORDERS USING SARMs” (priority 2014, published 2018).
# Values joined by “and” are separate entries in the source; they are usually repeats but may differ in a detail not shown here. Equal entries are not always repeated.
# Tests used:
# Assay type in all cases: in vivo, rat
# [1] = tested on: prostate, seminal vesicles and levator ani muscle; assay: Androgenic and anabolic activity in castrated immature male rats, subcutaneous osmotic pumps, 14 days; conditions: castrated rats, 14 days, FIG. 2
# Procedure: Immature male Sprague-Dawley rats, weighing 90 to 100 g, were purchased from Harlan Biosciences (Indianapolis, Ind.). The animals were maintained on a 12 hour light-dark cycle with food and water available ad libitum.
# Rats were randomly distributed into treatment groups groups. One day prior to the start of drug treatment, animals were individually removed from the cage, weighed and anesthetized with an intraperitoneal dose of ketamine/xylazine (87/13 mg/kg; approximately 1 mL per kg). When appropriately anesthetized (i.e., no response to toe pinch), the animals' ears were marked for identification purposes. Animals were then placed on a sterile pad and their abdomen and scrotum washed with betadine and 70% alcohol. The testes were removed via a midline scrotal incision, with sterile suture being used to ligate supra-testicular tissue prior to surgical removal of each testis. The surgical wound site was closed with sterile stainless steel wound clips, and the site cleaned with betadine. The animals were allowed to recover on a sterile pad (until able to stand) and then returned to their cage.
# Twenty-four hours later, animals were re-anesthetized with ketamine/xylazine, and an Alzet osmotic pump(s) (model 2002) was placed subcutaneouly in the scapular region. In this instance, the scapular region was shaved and cleaned (betadine and alcohol) and a small incision (1 cm) made using a sterile scalpel. The osmotic pump was inserted and the wound closed with a sterile stainless steel wound clip. Animals were allowed to recover and were returned to their cage. Osmotic pumps contained the appropriate treatment dissolved in polyethylene glycol 300 (PEG300). Osmotic pumps were filled with the appropriate solution one day prior to implantation. Animals were monitored daily for signs of acute toxicity to drug treatment (e.g., lethargy, rough coat).
# After 14 days of drug treatment, rats were anesthetized with ketamine/xylazine. Animals were then sacrificed by exsanguinations under anesthesia. A blood sample was collected by venipuncture of the abdominal aorta, and submitted for complete blood cell analysis. A portion of the blood was placed in a separate tube, centrifuged at 12,000 g for 1 minute, and the plasma layer removed and frozen at −20° C. The ventral prostates, seminal vesicles, levator ani muscle, liver, kidneys, spleen, lungs, and heart were removed, cleared of extraneous tissue, weighed, and placed in vials containing 10% neutral buffered formalin. Preserved tissues were sent for histopathological analysis.
# For data analysis, the weights of all organs were normalized to body weight, and analyzed for any statistical significant difference by single-factor ANOVA. The weights of prostate and seminal vesicle were used as indexes for evaluation of androgenic activity, and the levator ani muscle weight was used to evaluate the anabolic activity.
# [2] = tested on: prostate, seminal vesicles and levator ani muscle; assay: Androgenic and anabolic effects in intact, hemi-orchidectomized and castrated rats, subdermal osmotic pumps, 14 days; conditions: 0.5 mg/day; for Levator Ani weight / prostate weight / seminal vesicle weight: n = 5
# Procedure: Male Sprague-Dawley rats were purchased from Harlan Biosciences (Indianapolis, Ind.). The animals were maintained on a 12 h cycle of light and dark with food and water available ad libitum. All animal studies were reviewed and approved. Immature male Sprague-Dawley rats weighing 187 to 214 g were randomly distributed into 9 groups of 5 animals. One day before the initiation of drug treatment, groups 4 through 6 and groups 7 through 9 received unilateral or bilateral orchidectomy, respectively, via a midline scrotal incision. […] All drugs given to animals were freshly prepared as solutions in polyethylene glycol 300 (PEG 300). Groups 4 and 7 received treatment with vehicle alone (i.e., PEG 300). […] Animals in groups 2, 5, and 8 received compound of Formula XII (0.5 mg/day) via implantation of subdermal osmotic pumps. After 14 days of drug treatment, rats were weighed, anesthetized, and sacrificed. The ventral prostates, seminal vesicles, and levator ani muscle were removed and weighed. Osmotic pumps were also removed from animals to check for correct pump operation. The weights of all organs were normalized to body weight, and analyzed for any statistically significant differences between groups using single-factor ANOVA with the alpha value set a priori at p<0.05. The weights of prostates and seminal vesicles were used as indices for evaluation of androgenic activity, and the levator ani muscle weight was used to evaluate the anabolic activity. Statistical analyses of parameters from complete blood count or serum chemical profiling, wherever applicable, were performed by single-factor ANOVA with the alpha value set a priori at p<0.05.
# [3] = tested on: prostate, seminal vesicles and levator ani muscle; assay: Androgenic and anabolic activity in castrated (ORX) male rats, daily oral gavage for fourteen days; conditions: castrated rats, comparators
# Procedure: Male Sprague-Dawley rats weighing approximately 200 g were purchased from Harlan Bioproducts for Science (Indianapolis, Ind.). […] The anabolic and androgenic activity of compound of Formula VIII in intact animals was tested, as well as a dose response evaluation in acutely orchidectomized (ORX) animals. Regenerative effects of the compound of Formula VIII in chronically (9 days) ORX rats was similarly evaluated.
# The test article for this study was weighed and dissolved in 10% DMSO (Fisher) diluted with PEG 300 (Acros Organics, NJ) for preparation of the appropriate dosage concentrations. […] Animals were randomly assigned to one of seven groups consisting of 4 to 5 animals per group. Control groups (intact and ORX) were administered vehicle daily. Compound of Formula VIII was administered via oral gavage at doses of 0.01, 0.03, 0.1, 0.3, 0.75, and 1 mg/day to both intact and ORX groups. Where appropriate, animals were castrated on day one of the study. Treatment with compound of Formula VIII began nine days post ORX and was administered daily via oral gavage for fourteen days.
# (§1) In addition, ventral prostate, seminal vesicles, and levator ani muscle were removed, individually weighed, normalized to body weight, and expressed as a percentage of intact control. Student's T-test was used to compare individual dose groups to the intact control group. Significance was defined a priori as a P-value <0.05. Ventral prostate and seminal vesicle weights were evaluated as a measure of androgenic activity, whereas levator ani muscle weight was evaluated as a measure of anabolic activity. Blood was collected from the abdominal aorta, centrifuged, and sera were frozen at −80° C. prior to determination of serum hormone levels. Serum luteinizing hormone (LH) and follicle stimulating hormone (FSH) concentrations were determined.
# Male Sprague-Dawley rats weighing approximately 200 g were purchased from Harlan Bioproducts for Science (Indianapolis, Ind.). […] Anabolic and androgenic activity of compound of Formula IX in intact animals was evaluated, and the dose response in acutely orchidectomized (ORX) animals was evaluated as well. Regenerative effects of compound of Formula IX in chronically (9 days) ORX rats were also assessed.
# The compound was weighed and dissolved in 10% DMSO (Fisher) diluted with PEG 300 (Acros Organics, NJ) for preparation of the appropriate dosage concentrations. […] Intact and ORX animals were randomly assigned to one of seven groups consisting of 4 to 5 animals per group. Control groups (intact and ORX) were administered vehicle daily. Compound of Formula IX was administered via oral gavage at doses of 0.01, 0.03, 0.1, 0.3, 0.75, and 1 mg/day to both intact and ORX groups.
# as §1, with “Castrated animals (on day one of the study) were randomly assigned to dose groups (4-5 animals/group) of 0.01, 0.03, 0.1, 0.3, 0.75, and 1 mg/day, for dose-response evaluation. Dosing began nine days post ORX and was administered daily via oral gavage for fourteen days. […] In” for “In”, “As a measure of androgenic activity, ventral” for “Ventral”, “evaluated,” for “evaluated as a measure of androgenic activity,”, “lutenizing” for “luteinizing”
# Male Sprague-Dawley rats weighing approximately 200 g were purchased from Harlan Bioproducts for Science (Indianapolis, Ind.).
# [4] = tested on: prostate, seminal vesicles and levator ani muscle; assay: Androgenic and anabolic activity in intact male rats, daily oral gavage
# Procedure: Male Sprague-Dawley rats weighing approximately 200 g were purchased from Harlan Bioproducts for Science (Indianapolis, Ind.). The animals were maintained on a 12 h light/dark cycle with food (7012C LM-485 Mouse/Rat Sterilizable Diet, Harlan Teklad, Madison, Wis.) and water available ad libitum. The anabolic and androgenic activity of compound of Formula VIII in intact animals was tested, as well as a dose response evaluation in acutely orchidectomized (ORX) animals. Regenerative effects of the compound of Formula VIII in chronically (9 days) ORX rats was similarly evaluated.
# The test article for this study was weighed and dissolved in 10% DMSO (Fisher) diluted with PEG 300 (Acros Organics, NJ) for preparation of the appropriate dosage concentrations. The animals were housed in groups of 2 to 3 animals per cage. Animals were randomly assigned to one of seven groups consisting of 4 to 5 animals per group. Control groups (intact and ORX) were administered vehicle daily. Compound of Formula VIII was administered via oral gavage at doses of 0.01, 0.03, 0.1, 0.3, 0.75, and 1 mg/day to both intact and ORX groups. Where appropriate, animals were castrated on day one of the study. Treatment with compound of Formula VIII began nine days post ORX and was administered daily via oral gavage for fourteen days.
# as §1, with “The animals were sacrificed under anesthesia (ketamine/xyalzine, 87:13 mg/kg) and body weights were recorded. In” for “In”
# Male Sprague-Dawley rats weighing approximately 200 g were purchased from Harlan Bioproducts for Science (Indianapolis, Ind.). The animals were maintained on a 12 h light/dark cycle with food (7012C LM-485 Mouse/Rat Sterilizable Diet, Harlan Teklad, Madison, Wis.) and water available ad libitum. Anabolic and androgenic activity of compound of Formula IX in intact animals was evaluated, and the dose response in acutely orchidectomized (ORX) animals was evaluated as well. Regenerative effects of compound of Formula IX in chronically (9 days) ORX rats were also assessed.
# The compound was weighed and dissolved in 10% DMSO (Fisher) diluted with PEG 300 (Acros Organics, NJ) for preparation of the appropriate dosage concentrations. The animals were housed in groups of 2 to 3 animals per cage. Intact and ORX animals were randomly assigned to one of seven groups consisting of 4 to 5 animals per group. Control groups (intact and ORX) were administered vehicle daily. Compound of Formula IX was administered via oral gavage at doses of 0.01, 0.03, 0.1, 0.3, 0.75, and 1 mg/day to both intact and ORX groups.
# Castrated animals (on day one of the study) were randomly assigned to dose groups (4-5 animals/group) of 0.01, 0.03, 0.1, 0.3, 0.75, and 1 mg/day, for dose-response evaluation. Dosing began nine days post ORX and was administered daily via oral gavage for fourteen days. The animals were sacrificed under anesthesia (ketamine/xyalzine, 87:13 mg/kg) after a 14-day dosing regimen, and body weights were recorded. In addition, ventral prostate, seminal vesicles, and levator ani muscle were removed, individually weighed, normalized to body weight, and expressed as a percentage of intact control. Student's T-test was used to compare individual dose groups to the intact control group. […]
Structure (SMILES),Levator Ani weight ([2]; Castrated rats),prostate weight ([2]; Castrated rats),seminal vesicle weight ([2]; Castrated rats),Levator Ani weight ([2]; Hemi-castrated rats),prostate weight ([2]; Hemi-castrated rats),seminal vesicle weight ([2]; Hemi-castrated rats),Levator Ani weight ([2]; Intact rats),prostate weight ([2]; Intact rats),seminal vesicle weight ([2]; Intact rats),maximal stimulation of levator ani muscle weight [3] [%],other results
"CCC(=O)O[C@H]1CC[C@H]2[C@@H]3CCC4=CC(=O)CC[C@]4(C)[C@H]3CC[C@]12C [TP, testosterone propionate, reference compound]",87.27 ± 10.25 % of intact control,76.78 ± 10.43 % of intact control,63.48 ± 17.05 % of intact control,98.63 ± 10.47 % of intact control,98.57 ± 7.98 % of intact control,114.19 ± 23.81 % of intact control,95.61 ± 9.34 % of intact control,97.45 ± 10.82 % of intact control,103.95 ± 13.23 % of intact control,104,"weights of prostate, seminal vesicle and levator ani muscle [1]: increased the weights of prostate, seminal vesicle, and levator ani muscle in castrated rats in a dose-dependent manner"
"CC(=O)Nc1ccc(OC[C@](C)(O)C(=O)Nc2ccc([N+](=O)[O-])c(C(F)(F)F)c2)cc1 [XII, S-3-(4-acetylaminophenoxy)-2-hydroxy-2-methyl-N-(4-nitro-3-trifluoromethylphenyl) propionamide]",100.65 ± 10.86 % of intact control,32.55 ± 11.65 % of intact control,16.47 ± 5.21 % of intact control,108 % of intact control and 108.10 ± 8.92 % of intact control,75 % of intact control and 74.69 ± 8.44 % of intact control,79 % of intact control and 78.55 ± 13.58 % of intact control,109.15 ± 14.68 % of intact control,79 % of intact control and 79.41 ± 9.32 % of intact control,90.54 ± 12.10 % of intact control,101,adverse pharmacologic effects [2]: No adverse pharmacologic effects were observed
"C[C@](O)(COc1ccc(Cl)c(F)c1)C(=O)Nc1ccc(C#N)c(C(F)(F)F)c1 [XIV, (S)-3-(4-chloro-3-fluorophenoxy)-N-(4-cyano-3-(trifluoromethyl)phenyl)-2-hydroxy-2-methylpropanamide]",,,,,,,,,,,levator ani muscle weight ([4]; 0.01 mg/day): 100%±10%; prostate weight ([4]; 0.01 mg/day): 117%±20%; levator ani muscle weight ([4]; 0.03 mg/day): 98%±7%; prostate weight ([4]; 0.03 mg/day): 98%±15%; levator ani muscle weight ([4]; 0.1 mg/day): 110%±5%; prostate weight ([4]; 0.1 mg/day): 82%±20%; levator ani muscle weight ([4]; 0.3 mg/day): 110%±5%; prostate weight ([4]; 0.3 mg/day): 62%±5%; levator ani muscle weight ([4]; 0.75 mg/day): 125%±10%; prostate weight ([4]; 0.75 mg/day): 107%±30%; levator ani muscle weight ([4]; 1 mg/day): 129%±10%; prostate weight ([4]; 1 mg/day): 110%±14%
